Earlier results on one compound are cited in US12268662B2, “Formulations comprising carbachol and brimonidine to enhance anti- presbyopia effects” (VISUS THERAPEUTICS, INC., priority 2021, dated 2025).

Test in data set [1]: not given
The source holds these as a separate data set.

Test in data set [2]: not given
The source holds these as a separate data set.

Structures are written as SMILES.

Regarding `C[N+](C)(C)CCOC(N)=O` [Carbachol], the solubility is listed as 1 gm/mL. The pKa entry in data set [1] is given as “about 15”. Besides, the “log P” value in data set [2] is reported as −3.78.
